Target: T1, NosL (Streptomyces actuosus, UniProt C6FX51)
T1 sequence (C6FX51 1-400): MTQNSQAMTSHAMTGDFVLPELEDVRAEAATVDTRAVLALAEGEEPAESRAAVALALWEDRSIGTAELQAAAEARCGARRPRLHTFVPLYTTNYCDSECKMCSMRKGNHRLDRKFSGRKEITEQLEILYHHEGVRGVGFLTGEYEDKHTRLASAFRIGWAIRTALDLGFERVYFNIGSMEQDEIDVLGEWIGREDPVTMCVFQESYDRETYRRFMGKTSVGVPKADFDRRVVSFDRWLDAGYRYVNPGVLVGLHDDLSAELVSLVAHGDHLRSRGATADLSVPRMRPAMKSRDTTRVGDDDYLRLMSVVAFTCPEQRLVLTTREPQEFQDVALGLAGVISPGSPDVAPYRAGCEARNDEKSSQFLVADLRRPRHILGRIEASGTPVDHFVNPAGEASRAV
Details: with L-Trp; otherwise same

Q: With `C[S+](CC[C@H](N)C(=O)O)C[C@H]1O[C@@H](n2cnc3c(N)ncnc32)[C@H](O)[C@@H]1O` (stereo partly shown) [S-AdoMet] as the molecule, how does the “HPLC-MS of product 5'-deoxyadenosine” value read?
A: S-AdoMet consumption was independent of L-Trp, but significantly enhanced by adding L-Trp

From article PMC3079562 (Nature chemical biology, 2011)
